Measured values as given in the METLIN SMRT retention time set (Domingo-Almenara et al. 2019).

experiment: gradient 5% acetonitrile 3 min, to 50% in 2 min, to 85% in 15 min, held 3 min, 100 µL/min; conditions: column: Zorbax Extend-C18 2.1 x 50 mm; eluents: water / acetonitrile, 0.1% formic acid
How it was run: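 In both positive and negative ionization mode, a quadrupole time-of-flight mass spectrometer coupled to HPLC analyzed pure standards run in mixtures of ~100 molecules. The Zorbax Extend-C18 column (2.1 × 50 mm, 1.8 μm) was operated at 100 μL/min with water and acetonitrile, each containing 0.1% formic acid. The dead volume was 40 μL and the dwell volume 900 μL. Retention time came from adduct peaks that were computationally picked and individually inspected by hand.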

Structure (SMILES)	RP-LC retention time [s]
CCN1CCN(c2cc(-c3nc(-c4ccccc4)no3)c3ccccc3n2)CC1	822
CCN1CCn2cc(S(=O)(=O)Nc3cc(F)cc(F)c3)cc2C1=O	755
Cc1nnc2c(N3CCN(c4ccccn4)CC3)nc3ccc(C(=O)c4ccccc4)cc3n12	672
O=C(N[C@H]1C[C@@H]2C[C@H]1N(C(=O)CSc1ccccc1)C2)c1ccccc1	786
Cc1cc(-c2c(C)sc(C)c2S(=O)(=O)Nc2ccc(F)c(Cl)c2)n[nH]1	1120
CCOCC(=O)N1CCOc2ccc(N(C)C)cc2C1	566
O=C1NC(C(=O)NCc2cccs2)Cn2cccc21 (stereo unspecified)	620
COc1cc2c3c(n(C)c(=O)c2cc1OC)-c1cc2c(cc1C3=O)OCO2	840
CCN1CCN(Cc2nc3cc(NC(=O)c4cccs4)ccc3n2C(C)C)CC1	586
CN1C(=O)c2cccnc2Sc2cc(NC(=O)C3CC3)ccc21	650
O=C(NCc1ccco1)c1ccc(OCc2nc(C3CC3)cs2)cc1	825
Cc1cc(-c2c(C)sc(C)c2S(=O)(=O)Nc2ccc(C(C)C)cc2)n[nH]1	1200
O=C(c1ccco1)N1N=C(c2ccco2)CC1c1ccc2nccnc2c1 (stereo unspecified)	718
Cc1ccc(NC(=O)N2C[C@H](c3nc(-c4ccncc4)no3)[C@@H](C)C2)c(C)c1	797
O=C1OC2CC1N(C(=O)C1CC=CCC1)C2 (stereo unspecified)	622
Cc1noc([C@@H]2CC(F)(F)CN2C(=O)c2cnc[nH]2)n1	582
O=C(NCCn1c(=O)n(Cc2ccccc2)c2cccnc21)c1ccco1	725
COc1ccccc1NC(=O)Cn1ncc2c(N3CCN(c4ccccn4)CC3)ncnc21	600

Structure (SMILES)	RP-LC retention time [s]
C[C@@H]1O[C@@H](O[C@H]2C[C@@H](O)[C@]3(CO)[C@@H]4C(CC[C@]3(O)C2)[C@@]2(O)CC[C@H](C3COC(=O)C3)[C@@]2(C)C[C@H]4O)[C@H](O)[C@H](O)[C@H]1O (stereo partly specified)	602
CC(C)n1cc(S(=O)(=O)Nc2ccc(C#N)cc2)c2cccnc21	833
COc1cc(OC)cc(-c2nc(-c3ccc4c(c3)oc(=O)n4C)no2)c1	1060
CC(C)NC(=O)c1cc2nc(N(C)C)n(-c3ccccc3)c2s1	885
CCCn1ccc2sc(C)c(C(=O)NCc3cccc(Br)c3)c2c1=O	998
CC1=NS(=O)(=O)N(C)C=C1C(=O)OCc1nc(-c2ccccc2F)no1	895
Cc1ccn2cc(C(=O)NC3CCCCCC3)nc2c1	683
Cc1nc(-c2cc(S(=O)(=O)NCc3ccc(Br)cc3)c(C)s2)cs1	1030
COc1ccc(C(=O)c2cn(CC(=O)c3ccc(Cl)cc3)c3nc(C)ccc3c2=O)cc1	1010
CC1CCN(C(=O)c2cc3c(s2)CCC(C(=O)Nc2ccc4c(c2)OCCO4)C3)CC1 (stereo unspecified)	947
CCOC(=O)NCC1CCN(Cc2ccccc2SC)CC1	566
Cc1nn(CC(=O)NCc2cc(F)cc(F)c2)c(=O)c2nc(-c3ccccc3)sc12	891
CC(C)CN(Cc1ccccc1)Cc1cc(=O)n2cc(Cl)ccc2n1	686
CC(C)CNC(=O)c1nn(C)c2c1COc1ccccc1-2	690
Cc1cccc(-c2nc(-c3ccc4c(c3)nc(C)c(=O)n4C)no2)c1	1120
Cn1nccc1-c1cccc(-c2noc(CNC(=O)c3ccccc3)n2)c1	798
COc1ccc(NC(=O)NCCc2ccsc2)cc1	729
Cc1nc(-c2cn(C)c3ncccc23)sc1C(=O)NCc1ccccc1	863

The remaining lines, values ahead:

RP-LC retention time [s]	Structure (SMILES)
873	O=C(C1=NN(Cc2ccc(F)cc2)c2ccc(Cl)cc2S1(=O)=O)N1CCOCC1
716	O=C(c1ccccc1)N1CCC(n2c(-c3ccco3)nc3cccnc32)C1 (stereo unspecified)
1310	Cc1ccc(-c2nnc(-c3ccc(N4CCC(C)CC4)nc3)o2)cc1
842	COc1ccc(C2(CNS(=O)(=O)c3ccc(OC)c(Cl)c3)CCOCC2)cc1
589	O=C(NCc1cccc(F)c1)N1CCC(OC2CCN(Cc3ccccc3)CC2)CC1
769	COc1ccc(C(=O)N2CC3CN(S(=O)(=O)c4ccc(OC)cc4)CC(C2)O3)cc1
973	CCOC(=O)C1CCN(C(=O)c2cc(-c3ccc(C)c(C)c3)[nH]c2C)CC1
1050	Cc1cc(NC(=O)N2CCCC(C)(C(=O)NCc3ccc(F)cc3)C2)ccc1Br (stereo unspecified)
870	COc1ccc(CNC(=O)C2=C3CCCN3c3ccc(F)cc3S2(=O)=O)c(OC)c1
890	CCc1ccc(NC(=O)N2CCC(n3cnc4c(Cl)cccc4c3=O)CC2)cc1
841	COc1ccc2cc(C(=O)N3CCC(CC(=O)NCCc4c[nH]c5ccc(Cl)cc45)CC3)[nH]c2c1
644	Cc1cc(=O)n(CC(=O)Nc2ccc(F)cc2C)c(N2CCOCC2)n1
811	CCn1c(=O)c(N2CCN(C(=O)NCc3ccco3)CC2)nc2ccccc21
768	O=C(NCCc1csc(-c2cccs2)n1)C1CCN(C(=O)c2cccc(F)c2)CC1
789	Cc1ccc(CNc2c(-c3ccc(F)cc3)nc3ncccn23)cc1
1160	CCOC(=O)c1cc(C2CC2)nc2c1c(=O)n(Cc1cccc(F)c1)c(=O)n2C
569	O=C(Nc1nccnc1C(=O)NCCN1CCOCC1)c1ccccc1
589	CC(=O)N1CCCN(C(=O)c2ccc(C#N)cc2)CC1
849	Cc1ccc(Cl)cc1NC(=O)N1CCC(CC(=O)NCc2ccc(F)cc2)CC1
1010	COc1cccc(N2C(=O)C3N=NN(Cc4nc(-c5ccc(Cl)cc5)no4)C3C2=O)c1 (stereo unspecified)
858	Cc1ccc(C)c(N2CCN(c3ccnc(SCC(=O)NCc4ccccc4)n3)CC2)c1
815	O=C(c1nc(-c2ccccc2)nc2c1OCO2)N1CCCC1
803	Cc1c(C)n(-c2ccc(Cl)cc2)c2ncn(CC(=O)N3CCCC3)c(=O)c12
873	CCn1cc(C2=CCN(C(=O)NCc3ccc(C)cc3)CC2)c2cccnc21
754	O=C(NCc1ccc2c(c1)OCO2)C1CCN(c2nc3ccccc3o2)CC1
662	Cc1sc2ccn(Cc3ccc(F)cc3)c(=O)c2c1C(=O)NCCN1CCCC1
813	CC1CCN(CCNc2ncccc2-c2nnc(-c3ccc(Cl)cc3)o2)CC1
653	Cn1nc(C(=O)N2CCOCC2)c2c1CCN(C(=O)Nc1ccc(F)cc1F)C2
641	O=C(Cn1ccn(-c2cccc(Cl)c2)c(=O)c1=O)NCc1ccco1
1060	CC(C)CCNC(=O)C1CCCN(c2ncc(-c3ccc(F)cc3)cn2)C1 (stereo unspecified)
